Data on three substances can be found in patent publication US20240327506A1, “METHODS AND COMPOSITION FOR THE SELECTIVE ENHANCEMENT OF ADOPTIVE CELL THERAPY” (MaineHealth, priority 2023, published 2024).

One assay concerns the target αvβ3 (Homo sapiens, UniProt P05106+P06756). Conditions: cited from earlier work.
In another assay the test system is Hut78 T-cells. Put plainly: Transwell migration of Hut78 T-cells through collagen type-IV. The format is cell-based, human. As to the method: FIGS. 4A-4H. […] Briefly, membranes from transwell migration chambers were coated with either native collagen type-IV or denatured collagen type-IV. T-cell variants were incubated with non-specific control peptide CP, or the RGDKGE (SEQ ID NO: 1)-containing collagen peptide (P2) and seed on the coated transwell membranes. T-cells were allowed to migrate in the presence or absence of SDF-1 added to the lower chamber for approximately 1.5 hours. Cell migration was quantified by counting the number of crystal violet stained cells that had migrated through to the underside of the coated membrane. FIG. 4A. Jurkat T-cell migration through denatured collagen type-IV in the presence of non-specific control peptide CP or RGDKGE (SEQ ID NO: 1)-containing collagen peptide P2 with SDF-1. FIG. 4B. Jurkat T-cell migration through native collagen type-IV in the presence of non-specific control peptide CP or RGDKGE (SEQ ID NO: 1)-containing collagen peptide P2 with SDF-1. FIG. 4C. Cem/C1 T-cell migration through denatured collagen type-IV in the presence of non-specific control peptide CP or RGDKGE (SEQ ID NO: 1)-containing collagen peptide P2 with SDF-1. FIG. 4D. Cem/C1 T-cell migration through native collagen type-IV in the presence of non-specific control peptide CP or RGDKGE (SEQ ID NO: 1)-containing collagen peptide P2. FIG. 4E. Hut78 T-cell migration through denatured collagen type-IV in the presence of non-specific control peptide CP or RGDKGE (SEQ ID NO: 1)-containing collagen peptide P2. FIG. 4F. Hut78 T-cell migration through native collagen type-IV in the presence of non-specific control peptide CP or RGDKGE (SEQ ID NO: 1)-containing collagen peptide P2. FIG. 4G Primary CD8+ T-cell migration through denatured collagen type-IV in the presence of non-specific control peptide CP or RGDKGE (SEQ ID NO: 1)-containing collagen peptide P2 with SDF-1. FIG. 4H. CD8+ T-cell migration through native collagen type-IV in the presence of non-specific control peptide CP or RGDKGE (SEQ ID NO: 1)-containing collagen peptide P2 with SDF-1. Data bars indicate the mean cell migration±S.E. *P<0.05.
Given our new observations, and the fact that many tumor types as well as immunosuppressive macrophages can secrete the small soluble RGDKGE (SEQ ID NO: 1) collagen peptide, we next sought to determine whether this soluble collagen peptide could impact T-cell migration through denatured collagen type-IV, a critical ECM component shown to be selectively enriched in tumor vessels. Briefly, membranes from transwell migration chambers were coated with either native collagen type-IV or denatured collagen type-IV. […] Cell migration was quantified following staining cells with crystal violet (6,8). […]

A further assay has as its system ID8-VEGF ovarian tumors. In words: T-cell levels in malignant ascites fluid of mice with ID8-VEGF ovarian tumors, flow cytometry. Type of assay: in vivo, C57BL/6 mice. Conditions: compared to control antibody. As to the method:
Data bars represent the mean percentage of CD8+ T-cells (+SE from 4 mice per condition) in the ascites fluid from each experimental group.
Mice (C57BL/6) were injected intraperitoneally with ID8-VEGF ovarian tumor cells. ID8-VEGF tumor cells were allowed to grow within the peritoneal cavity of mice for 4-weeks to allow formation of malignant ascites fluid and solid tumors. Beginning at 4 weeks, mice were injected subcutaneously with 100 μg per mouse 2× per week with non-specific control antibody (Ab Cont) or anti-HU177 antibody (Anti-HU177). At 12 weeks, mice were sacrificed and malignant ascites fluid was collected. The relative levels of CD4+ Treg-cells within the malignant ascites fluid was quantified by flow cytometry. Data bars represent the mean percentage of CD4+ Treg cells+SE from 4 mice per condition in the ascites fluid from each experimental group.
Given the surprising results that the Mab HU177 enhanced T-cell migration on denatured collagen type-IV, we next evaluated if administration of HU-177 antibody could increase the levels of CD8+ T-cells found in malignant ascites fluid. […] The relative levels of CD8+ T-cells within the malignant ascites fluid was quantified by flow cytometry, for 4 mice per experimental condition. […]

A further assay deals with tumor. Conditions: combination with anti-PDL-1 antibody; cited from earlier work.
The next assay concerns activated fibroblasts. Particulars: cited from earlier work.

αvβ3, sequence (P06756 31-889 limits assumed): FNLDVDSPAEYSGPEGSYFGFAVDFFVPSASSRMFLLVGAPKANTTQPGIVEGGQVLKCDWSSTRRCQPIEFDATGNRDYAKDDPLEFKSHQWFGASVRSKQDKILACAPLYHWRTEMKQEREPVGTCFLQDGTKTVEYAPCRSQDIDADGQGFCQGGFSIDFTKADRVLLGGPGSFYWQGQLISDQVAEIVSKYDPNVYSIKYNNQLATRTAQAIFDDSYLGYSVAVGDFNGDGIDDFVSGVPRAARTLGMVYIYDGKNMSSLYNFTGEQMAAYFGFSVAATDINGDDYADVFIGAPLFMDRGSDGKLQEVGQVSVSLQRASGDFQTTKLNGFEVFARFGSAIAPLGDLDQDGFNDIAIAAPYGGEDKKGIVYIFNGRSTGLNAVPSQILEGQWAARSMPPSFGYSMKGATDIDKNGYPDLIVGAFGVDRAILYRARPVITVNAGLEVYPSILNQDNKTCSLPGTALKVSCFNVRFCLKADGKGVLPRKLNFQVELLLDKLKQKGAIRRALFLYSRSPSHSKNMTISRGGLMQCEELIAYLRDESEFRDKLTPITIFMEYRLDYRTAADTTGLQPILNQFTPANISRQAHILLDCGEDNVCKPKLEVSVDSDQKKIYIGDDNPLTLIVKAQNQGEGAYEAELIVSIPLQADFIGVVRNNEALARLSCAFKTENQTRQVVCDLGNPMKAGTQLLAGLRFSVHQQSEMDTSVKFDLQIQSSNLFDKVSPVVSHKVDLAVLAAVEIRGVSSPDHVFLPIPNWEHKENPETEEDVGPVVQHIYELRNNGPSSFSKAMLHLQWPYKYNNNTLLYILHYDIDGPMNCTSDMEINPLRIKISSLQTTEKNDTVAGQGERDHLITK
αvβ3, sequence (P06756 891-1048 partner limits assumed): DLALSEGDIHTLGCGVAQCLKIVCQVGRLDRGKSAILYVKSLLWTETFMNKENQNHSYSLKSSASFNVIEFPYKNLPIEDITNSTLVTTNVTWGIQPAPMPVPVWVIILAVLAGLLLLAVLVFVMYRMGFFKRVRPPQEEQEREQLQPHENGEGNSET
αvβ3, sequence (P05106 27-788): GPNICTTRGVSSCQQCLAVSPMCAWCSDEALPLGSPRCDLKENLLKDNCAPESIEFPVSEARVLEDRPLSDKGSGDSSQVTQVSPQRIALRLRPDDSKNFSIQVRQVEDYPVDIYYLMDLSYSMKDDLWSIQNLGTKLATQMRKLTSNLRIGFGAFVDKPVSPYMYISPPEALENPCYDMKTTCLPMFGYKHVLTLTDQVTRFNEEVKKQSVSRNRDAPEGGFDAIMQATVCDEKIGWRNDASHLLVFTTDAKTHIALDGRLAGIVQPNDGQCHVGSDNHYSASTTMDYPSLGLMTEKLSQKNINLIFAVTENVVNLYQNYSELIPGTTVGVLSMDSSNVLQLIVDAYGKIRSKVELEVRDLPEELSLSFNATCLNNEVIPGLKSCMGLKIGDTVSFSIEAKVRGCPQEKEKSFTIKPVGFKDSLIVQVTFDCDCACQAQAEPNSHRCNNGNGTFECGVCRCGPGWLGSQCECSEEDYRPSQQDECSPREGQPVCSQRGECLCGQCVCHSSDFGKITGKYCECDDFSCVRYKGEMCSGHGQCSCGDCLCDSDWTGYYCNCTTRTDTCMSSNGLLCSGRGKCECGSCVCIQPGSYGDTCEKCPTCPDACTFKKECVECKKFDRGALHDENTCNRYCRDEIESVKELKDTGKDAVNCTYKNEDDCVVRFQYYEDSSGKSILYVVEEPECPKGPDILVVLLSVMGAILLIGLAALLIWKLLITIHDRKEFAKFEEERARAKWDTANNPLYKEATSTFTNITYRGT

As to “KGDRGDAPG (CKGDRGDAPGC; Synthetic: Synthetic collagen RGD containing peptide P-1) [synthetic collagen RGD peptide, Colla1 742-750]”, the “binding to αvβ3” value in the assay with αvβ3 is on record as “bound”.
For “Mab HU177: antibody specifically directed to denatured forms of collagen, cryptic CPGFPGFC (SEQ ID NO: 16) epitope”, the “Hut78 T-cell migration” value in the assay on Hut78 T-cells (denatured collagen type-IV, fab fragments, compared to control antibody) is “significantly enhanced”. The “mean % Treg cells in the ascites fluid” value in the assay on ID8-VEGF ovarian tumors (100 μg per mouse subcutaneously twice a week from week 4, ascites at 12 weeks) is reported as “significant decrease”. In the assay on ID8-VEGF ovarian tumors (100 μg/mouse subcutaneously twice a week from week 4, ascites at 12 weeks), the “mean percentage of CD8+ T-cells in the ascites fluid” value was “significant increase”. Also, in the assay on tumor, the “anti-tumor efficacy of an immune checkpoint inhibitor (anti-PDL-1) in vivo” value was “enhance the therapeutic activity”. Moreover, in the assay with activated fibroblasts, the “activated fibroblast migration and accumulation within tumors in vivo” value is on record as “inhibits”.
CQGPGGAAGGC [CP, reference compound]: the “Hut78 T-cell migration” value in the assay on Hut78 T-cells (native collagen type-IV, peptide, absence of SDF-1) was “nor the non-specific control peptide had any significant effect”.
